The values below come from patent publication US10696615B2, “Prenylated hydroxystilbenes” (The University of Sydney, priority 2011, dated 2020).

One data set has as its system Klebsiella pneumoniae. The experiment in a line: MIC screening, broth microdilution (CLSI). (Dilution methods test growth across graded concentrations, often in twofold steps.)
Data set [1] can be described thus: Calculated Log partition coefficients (Log P).
The subject of another data set is Escherichia coli. As to the kind of experiment: MIC screening, broth microdilution (CLSI).
For the next data set, the system named is Pseudomonas aeruginosa. The experiment in a line: MIC screening, broth microdilution (CLSI).
The subject of the next data set is Enterococci. The experiment in a line: MIC screening, broth microdilution (CLSI).
For the next data set, the system named is Staphylococcus aureus. As to the kind of experiment: MIC screening, broth microdilution (CLSI).
The test system of a further data set is human tumor cell lines. The experiment in a line: NCI in vitro cancer screen, whole panel (summary statements). It counts as cell-based.
The next data set relates to Haemophilus influenzae. As to the kind of experiment: MIC screening, broth microdilution (CLSI).
Another data set has as its target PI3Kδ (Homo sapiens, UniProt O00329). The experiment in a line: Kinase activity assay. It counts as biochemical. To be noted: listed = inhibited more than 60%. The protocol:
(§1) • Kinase-Glo(Plus)/ADP-Gloassay buffer 25 mMHEPES, 10 mMMgCl2, 0.01% Triton X-100, 100 μg/mLBSA, 2.5 mMDTT, pH7.4. • Caliper assay buffer 100 mMHEPES, 10 mMMgCl2, 100 μl/L Brij35 (30%), 1 mMDTT, pH7.4. Assay Substrates • MBP protein, UnactiveMEK1, Rbprotein were purchased from SignalChem. Poly(glu:tyr)(4:1) was purchased from Sigma. PIP2 was purchased from Cayman. Peptide substrates were synthesized in HD Biosciences, China. ATP was purchased from Sigma. KinaseGloPlus reagent, KinaseGloreagent and ADP Gloreagent were purchased from Promega Assay Procedure—Caliper Format
(§2) Mix Kinases, substrate, ATP and compound in 96-well assay plate, total volume is 50 μL. Incubate assay plate at 30° C. for 1 hour. Stop reaction by adding 20 μL of 35 mM EDTA and transfer 26 μL stopped reaction to 384-well assay plate. Read the assay plate on the plate reader.
(§3) Mix Kinases, substrate, ATP and compound in 384-well assay plate, total volume is 10 μl. Incubate assay plate at 30° C. for 1 hour. Add 10 μl/well of ADP GloReagent to the assay plate, incubate at 27° C. for 40 min.
(§4) Add 20 μl/well Detection Reagent to the assay plate, incubate at 27° C. for 30 min. Read the assay plate on the plate reader
(§5) Mix Kinase, substrate, ATP and compound in 384-well assay plate, total volume is 10 μl. Incubate assay plate at 30° C. for 1 hour. Add 10 μl/well KinaseGlo(Plus) reagent to the reaction mixture, and then incubate at 27° C. for 20 min. Read the assay plate on plate reader. • Hundred percent effect was performed without compound and enzyme, but containing ATP and substrate. • Zero percent effect was carried out without compound, but containing ATP, substrate and enzyme. • SB202190 is reference compounds for kinase p38β; Staurosporine(STSP) is reference compound for the remaining kinases. Results

The next data set concerns the target PI3Kγ (Homo sapiens, UniProt P48736). The experiment in a line: Kinase activity assay. The class given is biochemical. The settings on record: listed = inhibited more than 60%. The protocol: as §1, §2, §3, §4, §5
In a further data set the target is CDK2/CyclinA2 (Homo sapiens, UniProt P24941). The experiment in a line: Kinase activity assay. It counts as biochemical. To be noted: listed = inhibited more than 60%. The protocol: as §1, §2, §3, §4, §5
For the next data set, the target named is TrkA (Homo sapiens, UniProt P04629). As to the kind of experiment: Kinase activity assay. It counts as biochemical. To be noted: listed = inhibited more than 60%. As to the method:
as §1, §2, §3, §4, §5

A further data set concerns the target FLT3 (Homo sapiens, UniProt P36888). The experiment in a line: Kinase activity assay. The class given is biochemical. To be noted: listed = inhibited more than 60%. As to the method:
as §1, §2, §3, §4, §5

Another data set addresses PI3Kα (Homo sapiens, UniProt P42336). The experiment in a line: Kinase activity assay. The class given is biochemical. The settings on record: listed = inhibited more than 60%. The protocol: as §1, §2, §3, §4, §5
Another data set relates to Streptococci. The experiment in a line: MIC screening, broth microdilution (CLSI).
For data set [2], the system named is Acinetobacter calcoaceticus. As to the kind of experiment: MIC screening, broth microdilution (CLSI).
Procedure: (§6) The minimum inhibition concentration (MIC) screening was performed with 14 bacterial strains and 4 compounds. The MICs were determined by the broth microdilution method according to the Clinical and Laboratory Standards Institute (CLSI) guidelines. The MIC screening was performed on 96-well plates containing the compounds in serial 2-fold dilutions from 64 to 0.06 μg/ml. The bacterial inoculations were prepared in cation-adjusted Mueller Hinton medium broth from cultures grown on appropriate agar plates which are prepared freshly every week. The growth controls and sterile controls were included in each assay plates. The assay plates were incubated in an ambient-air incubator at 35±2° C. for 16-20 hr (24 hr for MRSA), and bacterial growth was observed and recorded.
(§7) Compound stock solutions were prepared in 100% DMSO on the day of MIC screening and use immediately. Compound stock concentration=[(highest testing concentration)×103 μl/3 μl] (e.g. if the required highest testing concentration is 64 μg/ml in assay plates, stock concentration=64×103/3=2.2 mg/ml). The potency of testing compound is assumed as 100% unless otherwise stated whereas the potency of reference compound is calculated according to manufacturer's analysis data.
(§8) Eleven two-fold dilutions per compound were made then transferred 3 μl to each well of test plate. Final concentration of DMSO in the MIC screening is ˜3%.
(§9) B. Transfer colonies from fresh culture plates into 5 ml of saline with sterile loops and mix well. Measure and adjust turbidity to 0.5 McFarland barium sulphate standard using a turbidity meter. Alternatively, transfer 1-2 colonies into 500 μl of saline and adjust OD625 to ˜0.1 using a plate reader. […] Dilute bacterial inoculum 1:280 for Gram-positive and fastidious strains and 1:400 for Gram-negative strains into corresponding medium broth (CAMHB, CAMHB+3% lysed horse blood, HTM) (e.g. 35.6 μl of inoculum into 10 ml of CAMHB or 25 μl of inoculum into 10 ml of CAMHB). H. influenzae: HTM Streptococci: CAMHB+3% lysed horse blood Other strains in the panel: CAMHB 2.4. Prepare Assay Plates A. Add 100 μl of the bacterial inoculum to each well of the compound plates except wells B12, D12, F12 and H12. B. Add 100 μl of medium broth to wells B12, D12, F12 and H12 of the compound plates. […] Stack four plates together and cover with a sterile plate lid. Incubate in an ambient-air incubator at 35±2° C. for 16-20 hours (24 hours for MRSA). […] Perform Colony Counts A. Dilute the bacterial inoculum (0.5 McFarland) to a serial of 10-1 to 10-7 in saline solution (e.g. 100 μl bacterial inoculum+900 μl of saline). B. Spread 100 μl of each dilution (10-4, 10-5, 10-6, and 10-7) onto CAMHA plates in triplication, let the liquid soak into the agar for 10 minutes, invert the agar plates and incubate for 24 hr at 35±2° C. […] Record MICs and Calculate CFUs A. Open the compound plate layout in the compound management system, and check the assay plate barcode. B. Place the assay plate on the top of MIC reader, and adjust the magnification mirror to read each wells, record growth status as raw data. (Optional) Record photo image of each assay plates using high-speed high-resolution scanner. […] Determine MIC break points according to CLSI guideline. D. Count colonies and calculate CFU of bacterial inoculum.
In the next data set the test system is MRSA. As to the kind of experiment: MIC screening, broth microdilution (CLSI).
Another data set addresses PI3Kβ (Homo sapiens, UniProt P42338). As to the kind of experiment: Kinase activity assay. The class given is biochemical. The settings on record: listed = inhibited more than 60%. As to the method: as §1, §2, §3, §4, §5
In another data set the test system is BT-549. As to the kind of experiment: NCI in vitro cancer screen, Breast Cancer. It counts as cell-based, human. To be noted: for GI50 / CC50: Homo sapiens; for CC50: read-out: LC50 (the source's name).
[3] abbreviates: Enterococcus faecalis, ATCC29212, Enterococcus faecalis (ATCC 29212), Exp 1.
Setting [4] is: Enterococcus faecalis, ATCC29212, Enterococcus faecalis (ATCC 29212), Exp 2.
The mark [5] stands for this setting: Enterococcus faecium, ATCC700221, Enterococcus faecium (ATCC 700221), Exp 1.
Where [6] appears, read: Enterococcus faecium, ATCC700221, Enterococcus faecium (ATCC 700221), Exp 2.
The mark [7] stands for this setting: ATCC29213, Staphylococcus aureus (ATCC 29213), Exp 1.
Where [8] appears, read: ATCC29213, Staphylococcus aureus (ATCC 29213), Exp 2.
The mark [9] stands for this setting: Staphylococcus aureus (Levofloxacin-resistant), Exp 1.
[10] abbreviates: Staphylococcus aureus (Levofloxacin-resistant), Exp 2.
Setting [11] is: Streptococcus pneumoniae, ATCC49619, Streptococcus pneumoniae (ATCC 49619), Exp 1.
[12] abbreviates: Streptococcus pneumoniae, ATCC49619, Streptococcus pneumoniae (ATCC 49619), Exp 2.
[13] abbreviates: Streptococcus pneumoniae, Streptococcus pneumoniae (Erythromycin-resistant), Exp 1.
Setting [14] is: Streptococcus pneumoniae, Streptococcus pneumoniae (Erythromycin-resistant), Exp 2.
Setting [15] is: Streptococcus pyogenes, ATCC700942, Streptococcus pyogenes (ATCC 700942), Exp 1.
The mark [16] stands for this setting: Streptococcus pyogenes, ATCC700942, Streptococcus pyogenes (ATCC 700942), Exp 2.
[17] abbreviates: Staphylococcus aureus (ATCC 43300), Exp 2.
[18] abbreviates: Staphylococcus aureus (MRSA, Erythromycin & clindamycin-resistant), Exp 2.
Setting [19] is: Staphylococcus aureus, ATCC43300 / MRSA.

In brackets after ≈: the same amount, converted by molar mass. Read-outs that look alike come from different tables or passages of the source.

PI3Kγ, sequence (P48736 whole entry, species assumed): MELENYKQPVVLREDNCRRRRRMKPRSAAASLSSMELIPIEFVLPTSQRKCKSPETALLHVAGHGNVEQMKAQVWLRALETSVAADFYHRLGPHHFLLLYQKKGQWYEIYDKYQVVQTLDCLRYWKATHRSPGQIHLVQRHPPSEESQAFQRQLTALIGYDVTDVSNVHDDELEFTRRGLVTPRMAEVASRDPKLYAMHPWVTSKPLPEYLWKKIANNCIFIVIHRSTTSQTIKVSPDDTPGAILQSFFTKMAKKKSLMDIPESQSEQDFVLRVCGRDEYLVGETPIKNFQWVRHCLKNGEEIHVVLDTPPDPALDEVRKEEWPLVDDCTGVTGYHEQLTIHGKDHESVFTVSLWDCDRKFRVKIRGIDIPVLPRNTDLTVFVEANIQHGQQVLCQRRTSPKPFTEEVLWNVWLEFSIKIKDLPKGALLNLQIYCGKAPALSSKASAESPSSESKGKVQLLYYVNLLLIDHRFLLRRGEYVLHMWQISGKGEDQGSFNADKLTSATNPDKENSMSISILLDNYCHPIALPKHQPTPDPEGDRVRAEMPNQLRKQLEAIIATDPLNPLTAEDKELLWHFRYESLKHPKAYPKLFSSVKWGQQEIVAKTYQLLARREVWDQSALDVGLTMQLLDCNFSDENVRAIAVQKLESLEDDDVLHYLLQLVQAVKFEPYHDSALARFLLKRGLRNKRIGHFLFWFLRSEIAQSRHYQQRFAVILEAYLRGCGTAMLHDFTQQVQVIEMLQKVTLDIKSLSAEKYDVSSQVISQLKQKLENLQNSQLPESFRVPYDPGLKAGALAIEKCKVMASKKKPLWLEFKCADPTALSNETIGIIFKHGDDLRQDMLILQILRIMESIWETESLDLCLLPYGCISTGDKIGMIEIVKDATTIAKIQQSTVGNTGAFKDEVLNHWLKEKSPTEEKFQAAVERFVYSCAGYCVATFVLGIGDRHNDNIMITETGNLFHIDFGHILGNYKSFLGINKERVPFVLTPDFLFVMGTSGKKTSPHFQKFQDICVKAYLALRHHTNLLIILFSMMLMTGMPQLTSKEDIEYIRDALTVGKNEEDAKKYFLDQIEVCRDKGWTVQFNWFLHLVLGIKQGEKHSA
TrkA, sequence (P04629 33-796, species assumed): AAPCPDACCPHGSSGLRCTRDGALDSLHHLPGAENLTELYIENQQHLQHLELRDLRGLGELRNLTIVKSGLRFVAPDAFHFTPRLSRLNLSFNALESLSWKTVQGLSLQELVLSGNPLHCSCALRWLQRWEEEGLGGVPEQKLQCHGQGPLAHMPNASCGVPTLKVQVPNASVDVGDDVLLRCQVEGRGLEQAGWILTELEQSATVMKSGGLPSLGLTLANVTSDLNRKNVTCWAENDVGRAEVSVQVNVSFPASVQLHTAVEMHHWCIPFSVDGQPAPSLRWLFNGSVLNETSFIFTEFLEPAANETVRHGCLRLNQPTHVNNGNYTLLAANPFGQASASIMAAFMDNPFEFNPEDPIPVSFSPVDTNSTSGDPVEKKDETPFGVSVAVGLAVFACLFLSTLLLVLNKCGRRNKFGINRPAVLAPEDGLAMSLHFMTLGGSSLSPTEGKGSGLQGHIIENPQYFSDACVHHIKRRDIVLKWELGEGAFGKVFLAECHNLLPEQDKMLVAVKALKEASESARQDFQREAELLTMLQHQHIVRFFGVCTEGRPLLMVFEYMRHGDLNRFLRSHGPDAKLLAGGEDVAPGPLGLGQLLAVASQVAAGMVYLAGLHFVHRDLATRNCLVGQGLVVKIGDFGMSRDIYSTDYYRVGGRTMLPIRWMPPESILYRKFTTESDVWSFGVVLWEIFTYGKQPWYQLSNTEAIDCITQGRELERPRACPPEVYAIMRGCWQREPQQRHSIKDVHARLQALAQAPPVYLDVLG
PI3Kδ, sequence (O00329 whole entry, species assumed): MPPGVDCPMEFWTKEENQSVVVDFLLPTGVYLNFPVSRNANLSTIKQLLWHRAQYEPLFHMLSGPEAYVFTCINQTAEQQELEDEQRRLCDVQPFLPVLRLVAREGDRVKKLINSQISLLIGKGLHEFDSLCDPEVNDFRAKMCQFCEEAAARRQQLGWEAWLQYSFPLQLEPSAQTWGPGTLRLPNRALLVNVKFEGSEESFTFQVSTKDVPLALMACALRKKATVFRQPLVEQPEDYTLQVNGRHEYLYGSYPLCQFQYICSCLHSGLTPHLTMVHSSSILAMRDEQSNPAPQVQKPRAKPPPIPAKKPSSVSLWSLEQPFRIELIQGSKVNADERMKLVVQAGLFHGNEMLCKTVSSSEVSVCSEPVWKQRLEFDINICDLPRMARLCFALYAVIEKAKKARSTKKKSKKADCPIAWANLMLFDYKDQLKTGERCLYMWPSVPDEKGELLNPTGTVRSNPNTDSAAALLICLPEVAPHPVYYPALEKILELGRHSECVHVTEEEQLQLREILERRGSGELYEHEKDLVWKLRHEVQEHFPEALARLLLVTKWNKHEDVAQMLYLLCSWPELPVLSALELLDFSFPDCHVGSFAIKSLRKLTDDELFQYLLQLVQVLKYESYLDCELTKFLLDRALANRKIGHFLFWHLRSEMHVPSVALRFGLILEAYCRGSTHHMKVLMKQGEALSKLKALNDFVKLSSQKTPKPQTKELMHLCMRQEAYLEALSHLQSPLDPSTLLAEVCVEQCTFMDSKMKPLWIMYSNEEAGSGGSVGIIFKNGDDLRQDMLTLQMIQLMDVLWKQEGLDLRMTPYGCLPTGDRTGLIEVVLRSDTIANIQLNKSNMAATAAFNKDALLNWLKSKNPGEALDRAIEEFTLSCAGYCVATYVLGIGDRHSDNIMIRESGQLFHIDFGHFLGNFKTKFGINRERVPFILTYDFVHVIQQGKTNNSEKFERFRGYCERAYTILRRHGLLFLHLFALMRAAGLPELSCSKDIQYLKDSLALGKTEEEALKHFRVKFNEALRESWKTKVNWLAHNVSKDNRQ
PI3Kδ, sequence (P27986 whole entry partner, species assumed): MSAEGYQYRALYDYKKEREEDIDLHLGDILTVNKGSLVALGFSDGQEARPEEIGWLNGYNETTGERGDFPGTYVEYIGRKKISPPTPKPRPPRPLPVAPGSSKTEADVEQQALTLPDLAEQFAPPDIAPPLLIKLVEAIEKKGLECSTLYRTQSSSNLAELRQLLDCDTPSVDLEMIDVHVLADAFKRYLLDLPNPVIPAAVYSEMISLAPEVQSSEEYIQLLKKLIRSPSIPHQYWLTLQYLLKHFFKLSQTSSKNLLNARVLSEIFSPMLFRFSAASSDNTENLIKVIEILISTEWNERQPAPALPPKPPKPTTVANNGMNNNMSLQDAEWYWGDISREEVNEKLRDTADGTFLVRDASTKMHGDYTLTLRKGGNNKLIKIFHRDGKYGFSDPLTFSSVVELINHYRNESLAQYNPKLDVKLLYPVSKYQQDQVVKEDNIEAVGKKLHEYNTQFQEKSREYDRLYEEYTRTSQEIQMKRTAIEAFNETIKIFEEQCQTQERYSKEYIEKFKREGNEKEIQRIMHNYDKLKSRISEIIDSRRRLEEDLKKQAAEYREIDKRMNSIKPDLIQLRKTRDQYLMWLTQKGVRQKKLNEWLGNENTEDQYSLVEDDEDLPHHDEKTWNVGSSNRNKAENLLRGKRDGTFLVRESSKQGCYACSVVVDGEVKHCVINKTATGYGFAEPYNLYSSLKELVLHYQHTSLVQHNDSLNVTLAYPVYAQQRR
PI3Kβ, sequence (P42338 whole entry, species assumed): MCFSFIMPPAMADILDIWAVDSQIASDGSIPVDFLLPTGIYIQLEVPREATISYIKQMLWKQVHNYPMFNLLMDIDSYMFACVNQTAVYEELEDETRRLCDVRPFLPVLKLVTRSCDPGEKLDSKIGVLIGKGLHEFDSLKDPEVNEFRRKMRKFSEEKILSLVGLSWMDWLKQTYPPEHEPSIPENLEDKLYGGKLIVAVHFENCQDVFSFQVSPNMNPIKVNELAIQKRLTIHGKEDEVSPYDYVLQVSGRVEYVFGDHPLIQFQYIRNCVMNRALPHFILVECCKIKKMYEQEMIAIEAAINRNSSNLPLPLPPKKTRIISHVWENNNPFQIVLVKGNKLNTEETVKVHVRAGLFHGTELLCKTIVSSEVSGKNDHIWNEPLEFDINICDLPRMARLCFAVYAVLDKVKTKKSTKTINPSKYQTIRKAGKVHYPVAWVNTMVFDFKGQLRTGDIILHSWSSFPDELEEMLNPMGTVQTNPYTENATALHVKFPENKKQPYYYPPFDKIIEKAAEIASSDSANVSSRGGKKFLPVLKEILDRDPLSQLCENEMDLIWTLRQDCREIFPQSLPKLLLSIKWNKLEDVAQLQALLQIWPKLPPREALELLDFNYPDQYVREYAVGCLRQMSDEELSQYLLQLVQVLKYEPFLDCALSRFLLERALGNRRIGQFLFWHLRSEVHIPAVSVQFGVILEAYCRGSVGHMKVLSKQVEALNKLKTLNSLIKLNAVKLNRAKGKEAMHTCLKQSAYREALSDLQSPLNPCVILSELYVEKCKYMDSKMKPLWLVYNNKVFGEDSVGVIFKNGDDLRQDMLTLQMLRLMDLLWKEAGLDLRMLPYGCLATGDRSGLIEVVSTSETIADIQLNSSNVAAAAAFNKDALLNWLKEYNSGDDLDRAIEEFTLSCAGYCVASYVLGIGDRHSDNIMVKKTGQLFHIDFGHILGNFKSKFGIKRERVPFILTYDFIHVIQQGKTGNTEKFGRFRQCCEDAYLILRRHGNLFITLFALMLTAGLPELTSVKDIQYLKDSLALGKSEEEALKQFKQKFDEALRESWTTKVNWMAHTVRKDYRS
PI3Kβ, sequence (P27986 whole entry partner, species assumed): as the sequence (P27986 whole entry partner, species assumed) above
Procedure for Enterococci: as §6
(§10) A. Revive bacterial strains from storage frozen (−80° C.) two days before the MIC screening. Streak onto surface of appropriate agar plates, and incubate the plates for 20-24 hr at 35±2° C. in an appropriate atmosphere.
Enterococci: TSA II, ambient air
(§11) B. Select 5-10 well-isolated colonies of similar morphology and restreak onto fresh agar plates using sterile loops. Incubate the plates for 20-24 hr at 35±2° C. in an appropriate atmosphere as above.
as §7, §8
B. Transfer colonies from fresh culture plates into 5 ml of saline with sterile loops and mix well. Measure and adjust turbidity to 0.5 McFarland barium sulphate standard using a turbidity meter. Alternatively, transfer 1-2 colonies into 500 μl of saline and adjust OD625 to ˜0.1 using a plate reader. C. Dilute bacterial inoculum 1:280 for Gram-positive and fastidious strains and 1:400 for Gram-negative strains into corresponding medium broth (CAMHB, CAMHB+3% lysed horse blood, HTM) (e.g. 35.6 μl of inoculum into 10 ml of CAMHB or 25 μl of inoculum into 10 ml of CAMHB). H. influenzae: HTM Streptococci: CAMHB+3% lysed horse blood Other strains in the panel: CAMHB 2.4. Prepare Assay Plates A. Add 100 μl of the bacterial inoculum to each well of the compound plates except wells B12, D12, F12 and H12. B. Add 100 μl of medium broth to wells B12, D12, F12 and H12 of the compound plates. C. Stack four plates together and cover with a sterile plate lid. Incubate in an ambient-air incubator at 35±2° C. for 16-20 hours (24 hours for MRSA). […] Perform Colony Counts A. Dilute the bacterial inoculum (0.5 McFarland) to a serial of 10-1 to 10-7 in saline solution (e.g. 100 μl bacterial inoculum+900 μl of saline). B. Spread 100 μl of each dilution (10-4, 10-5, 10-6, and 10-7) onto CAMHA plates in triplication, let the liquid soak into the agar for 10 minutes, invert the agar plates and incubate for 24 hr at 35±2° C. […] Record MICs and Calculate CFUs A. Open the compound plate layout in the compound management system, and check the assay plate barcode. B. Place the assay plate on the top of MIC reader, and adjust the magnification mirror to read each wells, record growth status as raw data. (Optional) Record photo image of each assay plates using high-speed high-resolution scanner. C. Determine MIC break points according to CLSI guideline. D. Count colonies and calculate CFU of bacterial inoculum.
Procedure for Escherichia coli: as §6, §7, §8, §9
Procedure for Haemophilus influenzae: as §6, §10
Haemophilus influenzae: chocolate agar, 5% CO2
as §11, §7, §8, §9
Procedure for Klebsiella pneumoniae: as §6, §7, §8, §9
Procedure for MRSA: The MICs were determined by the broth microdilution method according to the Clinical and Laboratory Standards Institute (CLSI) guidelines. The MIC screening was performed on 96-well plates containing the compounds in serial 2-fold dilutions from 64 to 0.06 μg/ml. The bacterial inoculations were prepared in cation-adjusted Mueller Hinton medium broth from cultures grown on appropriate agar plates which are prepared freshly every week. The growth controls and sterile controls were included in each assay plates. The assay plates were incubated in an ambient-air incubator at 35±2° C. for 16-20 hr (24 hr for MRSA), and bacterial growth was observed and recorded.
as §10, §11, §7, §8, §9
Procedure for Pseudomonas aeruginosa: as §6, §7, §8, §9
Procedure for Staphylococcus aureus: as §6, §7, §8, §9
Procedure for Streptococci: as §6, §10
Streptococci: TSA II, 5% CO2
as §11, §7, §8, §9

For orientation: GI50 means the concentration at which growth is held to half of that of the control. Read a low GI50 as more potent growth inhibition. Consider `COc1cc(/C=C/c2cc(O)cc(OC)c2CC=C(C)C)ccc1O` [USYDS1, (E)-2-(3-methyl-2-buten-1-yl)-4′,5-dihydroxy-3,3′-dimethoxystilbene], for which the MIC was above 64 µg/mL in the data set on Klebsiella pneumoniae; above 64 µg/mL against Klebsiella pneumoniae (Exp 2); 16 µg/mL (≈ 47 µM) against Escherichia coli (Exp 1); 16 µg/mL (≈ 47 µM) in the data set on Escherichia coli (Exp 2); above 64 µg/mL against Pseudomonas aeruginosa; above 64 µg/mL against Pseudomonas aeruginosa (Exp 2). Also, the MIC in the data set on Enterococci (setting [3]) is 16 µg/mL (≈ 47 µM); in the data set with Enterococci (setting [4]), 16 µg/mL (≈ 47 µM); in the data set with Enterococci (setting [5]), 8 µg/mL (≈ 23.5 µM); against Enterococci (setting [6]), 16 µg/mL (≈ 47 µM); in the data set with Staphylococcus aureus (setting [7]) it was 16 µg/mL (≈ 47 µM); in the data set on Staphylococcus aureus (setting [8]) it was 8 µg/mL (≈ 23.5 µM). Moreover, the MIC against Staphylococcus aureus (setting [9]) is 8 µg/mL (≈ 23.5 µM); with Staphylococcus aureus (setting [10]), 8 µg/mL (≈ 23.5 µM); against Haemophilus influenzae it was 32 µg/mL (≈ 94 µM); against Haemophilus influenzae (Exp 2), 32 µg/mL (≈ 94 µM); against Streptococci (setting [11]) it was 32 µg/mL (≈ 94 µM); with Streptococci (setting [12]), 32 µg/mL (≈ 94 µM). Further, the MIC is 32 µg/mL (≈ 94 µM) with Streptococci (setting [13]); 32 µg/mL (≈ 94 µM) with Streptococci (setting [14]); 64 µg/mL (≈ 188 µM) in the data set with Streptococci (setting [15]); 64 µg/mL (≈ 188 µM) against Streptococci (setting [16]); above 64 µg/mL in data set [2]; above 64 µg/mL in data set [2] (Exp 2). In addition, the MIC in the data set on MRSA (setting [17]) worked out at 8 µg/mL (≈ 23.5 µM); with MRSA (setting [18]) it was 8 µg/mL (≈ 23.5 µM); in the data set on MRSA (setting [19]), 8 µg/mL (≈ 23.5 µM); in the data set on MRSA (Staphylococcus aureus, MRSA) it was 8 µg/mL (≈ 23.5 µM). Further, the “Log P relative to resveratrol” value in [1] was “almost twice that of the hydroxystilbene resveratrol”. The compound further had a GI50 in the data set with human tumor cell lines (Homo sapiens, range over almost all types of tumor cells) of 0.02 to 5 µM. In the data set with human tumor cell lines (inhibition of proliferation of almost all types of tumor cells), the “fold more potent than piceatannol” value is “approximately 250 fold”. For the same compound, in the data set with human tumor cell lines (result in words), the “order of potency in the inhibition of cancerous cell growth” value is given as “most potent activity”. Also, the “Kinases that inhibited more than 60%” value on PI3Kδ is recorded as “PI3Kδ”; on PI3Kγ, “PI3Kγ”; on CDK2/CyclinA2, “CDK2/CyclinA2”; at TrkA it was “TrkA”; on FLT3 it was “FLT3”; on PI3Kα, “PI3Kα”.

With `COc1cc(/C=C/c2cc(O)cc(OCC=C(C)C)c2)ccc1O` [USYDS2, (E)-3-(3-methyl-2-butenyloxy)-4′,5-dihydroxy-3′-methoxystilbene], the MIC against Klebsiella pneumoniae was above 64 µg/mL; in the data set on Klebsiella pneumoniae (Exp 2), above 64 µg/mL; with Escherichia coli (Exp 1), 64 µg/mL (≈ 196 µM); against Escherichia coli (Exp 2), 32 µg/mL (≈ 98 µM); against Pseudomonas aeruginosa it was above 64 µg/mL; against Pseudomonas aeruginosa (Exp 2), above 64 µg/mL. The MIC in the data set on Enterococci (setting [3]) stood at 32 µg/mL (≈ 98 µM); in the data set with Enterococci (setting [4]), 32 µg/mL (≈ 98 µM); in the data set with Enterococci (setting [5]) it was 32 µg/mL (≈ 98 µM); in the data set on Enterococci (setting [6]) it was 32 µg/mL (≈ 98 µM); in the data set on Staphylococcus aureus (setting [7]), 32 µg/mL (≈ 98 µM); in the data set on Staphylococcus aureus (setting [8]), 16 µg/mL (≈ 49 µM). In addition, the MIC in the data set on Staphylococcus aureus (setting [9]) was found to be 16 µg/mL (≈ 49 µM); against Staphylococcus aureus (setting [10]) it was 16 µg/mL (≈ 49 µM); against Haemophilus influenzae, 32 µg/mL (≈ 98 µM); against Haemophilus influenzae (Exp 2), 32 µg/mL (≈ 98 µM); against Streptococci (setting [11]), 32 µg/mL (≈ 98 µM); in the data set with Streptococci (setting [12]) it was 32 µg/mL (≈ 98 µM). The MIC in the data set on Streptococci (setting [13]) is 32 µg/mL (≈ 98 µM); with Streptococci (setting [14]) it was 64 µg/mL (≈ 196 µM); in the data set with Streptococci (setting [15]), 64 µg/mL (≈ 196 µM); in the data set with Streptococci (setting [16]), 64 µg/mL (≈ 196 µM); in [2] it was above 64 µg/mL; in data set [2] (Exp 2), above 64 µg/mL. Moreover, the MIC against MRSA (setting [17]) turned out to be 16 µg/mL (≈ 49 µM); with MRSA (setting [18]), 16 µg/mL (≈ 49 µM); in the data set with MRSA (setting [19]), 16 µg/mL (≈ 49 µM); against MRSA (Staphylococcus aureus, MRSA), 16 µg/mL (≈ 49 µM). Further, the “Log P relative to resveratrol” value in data set [1] was “almost twice that of the hydroxystilbene resveratrol”. The “Kinases that inhibited more than 60%” value at PI3Kβ is listed as “PI3Kβ”; on PI3Kδ, “PI3Kδ”; on PI3Kγ, “PI3Kγ”; at TrkA it was “TrkA”.

For the compound `COc1cc(/C=C/c2cc(O)cc(O)c2CC=C(C)C)ccc1O` [USYDS10, (E)-2-(3-methyl-2-buten-1-yl)-3,4′,5-trihydroxy-3′-methoxystilbene], in the data set on BT-549 (BT-549, unit not printed (M)), the TGI was found to be 1.90E−5. In the data set on BT-549 (BT-549, unit not printed (M)), this compound gave a GI50 of 0.798 µM. Also, the CC50 with BT-549 (BT-549, unit not printed (M)) was determined as 49.3 µM. Moreover, in the data set on human tumor cell lines (result in words), the “inhibition of cancerous cell growth” value is given as “structure dependent inhibition of cancerous cell growth”. Besides, the “Kinases that inhibited more than 60%” value at PI3Kβ is on record as “PI3Kβ”; at PI3Kδ it was “PI3Kδ”; on PI3Kγ, “PI3Kγ”; at CDK2/CyclinA2, “CDK2/CyclinA2”; on TrkA it was “TrkA”; at FLT3, “FLT3”. Also, the “Kinases that inhibited more than 60%” value on PI3Kα is “PI3Kα”.

Turning to `CC(C)=CCOc1cc(O)cc(/C=C/c2ccc(O)c(O)c2)c1CC=C(C)C` [USYDS14, (E)-2-(3-methyl-2-buten-1-yl)-3-(3-methyl-2-butenyloxy)-3′,4′,5-trihydroxystilbene], in the data set with BT-549 (BT-549, Breast Cancer), the TGI amounted to 1.63e-05 M, the GI50 stood at 4.27 µM and the CC50 worked out at 46.9 µM. Also, the “inhibition of cancerous cell growth” value with human tumor cell lines (result in words) was “structure dependent inhibition of cancerous cell growth”.
